Measured values from ChEMBL document CHEMBL3991601, “The target landscape of clinical kinase drugs” (Science, 2017).
The source made the active and inactive calls. Cut-off read from the data, not from the text of the source, for most assays here: actives have a measured Kd and inactives only a lower limit.

How the values were obtained:
[1] = target: T1, Scaffold protein ILK (Homo sapiens, UniProt Q13418)
T1 sequence (Q13418 whole entry): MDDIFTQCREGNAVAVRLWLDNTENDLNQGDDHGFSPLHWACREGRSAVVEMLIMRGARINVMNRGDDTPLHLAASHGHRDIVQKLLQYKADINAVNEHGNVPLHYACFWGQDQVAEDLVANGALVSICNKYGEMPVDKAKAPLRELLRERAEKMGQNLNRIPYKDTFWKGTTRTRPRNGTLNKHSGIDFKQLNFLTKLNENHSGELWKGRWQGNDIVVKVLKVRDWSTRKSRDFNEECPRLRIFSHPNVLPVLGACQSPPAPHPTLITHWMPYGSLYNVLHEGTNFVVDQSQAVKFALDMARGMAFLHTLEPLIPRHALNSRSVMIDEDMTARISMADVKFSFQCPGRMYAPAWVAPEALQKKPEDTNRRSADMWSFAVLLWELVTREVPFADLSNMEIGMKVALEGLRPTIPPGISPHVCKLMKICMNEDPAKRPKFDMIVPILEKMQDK

[2] = target: Elongation factor Tu, mitochondrial (Homo sapiens, UniProt P49411)
[3] = target: T2, Serine/threonine-protein kinase 3 (Homo sapiens, UniProt Q13188)
T2 sequence (Q13188 whole entry): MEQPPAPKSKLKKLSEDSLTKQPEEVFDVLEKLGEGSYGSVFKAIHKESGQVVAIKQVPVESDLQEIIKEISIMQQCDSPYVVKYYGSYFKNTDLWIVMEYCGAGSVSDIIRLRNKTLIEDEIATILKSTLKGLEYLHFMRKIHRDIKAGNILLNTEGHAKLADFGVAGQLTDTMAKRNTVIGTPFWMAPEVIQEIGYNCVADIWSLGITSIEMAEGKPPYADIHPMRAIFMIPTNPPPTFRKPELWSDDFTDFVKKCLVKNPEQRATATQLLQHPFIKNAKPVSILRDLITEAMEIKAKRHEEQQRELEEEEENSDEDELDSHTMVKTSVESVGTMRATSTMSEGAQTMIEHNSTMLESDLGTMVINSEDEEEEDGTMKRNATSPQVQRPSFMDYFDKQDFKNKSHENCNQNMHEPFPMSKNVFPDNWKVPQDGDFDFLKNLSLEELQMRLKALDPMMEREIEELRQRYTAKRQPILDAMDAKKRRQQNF

[4] = target: T3, Ribosyldihydronicotinamide dehydrogenase [quinone] (Homo sapiens, UniProt P16083)
T3 sequence (P16083 whole entry): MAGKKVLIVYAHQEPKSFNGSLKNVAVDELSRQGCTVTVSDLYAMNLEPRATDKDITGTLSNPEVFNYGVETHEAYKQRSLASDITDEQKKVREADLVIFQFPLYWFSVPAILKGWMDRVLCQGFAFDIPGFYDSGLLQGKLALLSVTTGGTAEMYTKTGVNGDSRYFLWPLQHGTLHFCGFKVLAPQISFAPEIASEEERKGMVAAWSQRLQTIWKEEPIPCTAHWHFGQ

[5] = target: Tyrosine-protein kinase Fer (Homo sapiens, UniProt P16591)
[6] = target: High affinity nerve growth factor receptor (Homo sapiens, UniProt P04629)
[7] = target: T4, Serine/threonine-protein kinase Chk1 (Homo sapiens, UniProt O14757)
T4 sequence (O14757 whole entry): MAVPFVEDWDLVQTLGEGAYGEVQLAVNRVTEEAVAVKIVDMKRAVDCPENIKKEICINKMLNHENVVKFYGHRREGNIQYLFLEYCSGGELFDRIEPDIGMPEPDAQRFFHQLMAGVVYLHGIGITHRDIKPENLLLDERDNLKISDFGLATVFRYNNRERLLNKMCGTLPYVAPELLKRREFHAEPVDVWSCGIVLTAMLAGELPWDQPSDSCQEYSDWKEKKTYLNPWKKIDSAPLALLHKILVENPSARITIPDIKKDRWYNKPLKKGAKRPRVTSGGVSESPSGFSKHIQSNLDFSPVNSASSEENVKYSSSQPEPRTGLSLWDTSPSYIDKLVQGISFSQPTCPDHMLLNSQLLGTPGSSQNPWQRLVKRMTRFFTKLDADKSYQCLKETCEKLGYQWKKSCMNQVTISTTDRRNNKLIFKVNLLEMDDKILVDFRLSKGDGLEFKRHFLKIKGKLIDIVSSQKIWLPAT

[8] = target: T5, Bone morphogenetic protein receptor type-2 (Homo sapiens, UniProt Q13873)
T5 sequence (Q13873 whole entry): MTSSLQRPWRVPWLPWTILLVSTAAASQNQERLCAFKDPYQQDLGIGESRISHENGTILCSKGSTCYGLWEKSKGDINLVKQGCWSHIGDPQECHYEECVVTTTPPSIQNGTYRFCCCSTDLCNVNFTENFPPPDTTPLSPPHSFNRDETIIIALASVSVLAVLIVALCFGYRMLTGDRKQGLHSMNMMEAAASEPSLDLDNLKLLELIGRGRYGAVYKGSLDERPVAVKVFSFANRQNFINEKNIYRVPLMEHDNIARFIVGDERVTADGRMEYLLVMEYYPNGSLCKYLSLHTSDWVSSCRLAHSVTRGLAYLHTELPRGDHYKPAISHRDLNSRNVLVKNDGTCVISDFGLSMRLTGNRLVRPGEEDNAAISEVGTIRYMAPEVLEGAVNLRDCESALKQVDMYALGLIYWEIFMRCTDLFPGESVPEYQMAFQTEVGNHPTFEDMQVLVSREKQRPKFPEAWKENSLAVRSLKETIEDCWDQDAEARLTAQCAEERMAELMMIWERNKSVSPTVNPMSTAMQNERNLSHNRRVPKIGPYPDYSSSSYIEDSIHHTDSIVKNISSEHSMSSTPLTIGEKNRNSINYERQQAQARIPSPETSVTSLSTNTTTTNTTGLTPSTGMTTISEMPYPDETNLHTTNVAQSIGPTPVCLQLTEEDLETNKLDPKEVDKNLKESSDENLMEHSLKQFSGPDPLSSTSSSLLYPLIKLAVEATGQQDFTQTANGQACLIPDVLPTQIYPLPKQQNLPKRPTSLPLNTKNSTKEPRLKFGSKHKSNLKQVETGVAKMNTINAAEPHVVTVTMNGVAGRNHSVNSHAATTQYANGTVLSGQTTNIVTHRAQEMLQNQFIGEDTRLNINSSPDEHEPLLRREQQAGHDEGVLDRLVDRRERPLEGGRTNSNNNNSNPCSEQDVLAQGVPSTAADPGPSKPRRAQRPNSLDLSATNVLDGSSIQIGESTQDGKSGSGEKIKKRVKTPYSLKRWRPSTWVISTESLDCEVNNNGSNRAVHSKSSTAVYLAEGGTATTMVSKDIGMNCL

[9] = target: Dual specificity testis-specific protein kinase 1 (Homo sapiens, UniProt Q15569)
Note: in the data inactive means no Kd found up to 30 µM.

Chain of High affinity nerve growth factor receptor (P04629 whole entry): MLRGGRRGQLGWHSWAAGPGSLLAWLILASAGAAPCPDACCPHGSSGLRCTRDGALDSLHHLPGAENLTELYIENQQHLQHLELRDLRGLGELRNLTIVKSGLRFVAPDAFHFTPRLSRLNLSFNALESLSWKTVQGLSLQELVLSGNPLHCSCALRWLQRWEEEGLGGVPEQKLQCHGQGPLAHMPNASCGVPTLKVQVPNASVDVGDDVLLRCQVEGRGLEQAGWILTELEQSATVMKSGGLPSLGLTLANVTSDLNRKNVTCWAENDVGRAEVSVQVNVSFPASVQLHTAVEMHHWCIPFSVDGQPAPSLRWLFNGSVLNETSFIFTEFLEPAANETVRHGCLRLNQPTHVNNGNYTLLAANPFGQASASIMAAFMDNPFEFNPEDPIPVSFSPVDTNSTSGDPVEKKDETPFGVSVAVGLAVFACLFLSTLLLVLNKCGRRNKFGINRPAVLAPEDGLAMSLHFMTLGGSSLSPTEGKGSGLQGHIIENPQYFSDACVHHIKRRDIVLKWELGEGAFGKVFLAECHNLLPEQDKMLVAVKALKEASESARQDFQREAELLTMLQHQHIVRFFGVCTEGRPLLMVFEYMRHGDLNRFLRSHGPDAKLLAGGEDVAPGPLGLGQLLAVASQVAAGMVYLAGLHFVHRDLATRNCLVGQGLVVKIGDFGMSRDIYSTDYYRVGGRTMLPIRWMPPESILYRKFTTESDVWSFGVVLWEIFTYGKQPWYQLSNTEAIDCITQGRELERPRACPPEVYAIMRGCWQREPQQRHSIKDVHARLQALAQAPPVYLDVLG
Chain of Dual specificity testis-specific protein kinase 1 (Q15569 whole entry): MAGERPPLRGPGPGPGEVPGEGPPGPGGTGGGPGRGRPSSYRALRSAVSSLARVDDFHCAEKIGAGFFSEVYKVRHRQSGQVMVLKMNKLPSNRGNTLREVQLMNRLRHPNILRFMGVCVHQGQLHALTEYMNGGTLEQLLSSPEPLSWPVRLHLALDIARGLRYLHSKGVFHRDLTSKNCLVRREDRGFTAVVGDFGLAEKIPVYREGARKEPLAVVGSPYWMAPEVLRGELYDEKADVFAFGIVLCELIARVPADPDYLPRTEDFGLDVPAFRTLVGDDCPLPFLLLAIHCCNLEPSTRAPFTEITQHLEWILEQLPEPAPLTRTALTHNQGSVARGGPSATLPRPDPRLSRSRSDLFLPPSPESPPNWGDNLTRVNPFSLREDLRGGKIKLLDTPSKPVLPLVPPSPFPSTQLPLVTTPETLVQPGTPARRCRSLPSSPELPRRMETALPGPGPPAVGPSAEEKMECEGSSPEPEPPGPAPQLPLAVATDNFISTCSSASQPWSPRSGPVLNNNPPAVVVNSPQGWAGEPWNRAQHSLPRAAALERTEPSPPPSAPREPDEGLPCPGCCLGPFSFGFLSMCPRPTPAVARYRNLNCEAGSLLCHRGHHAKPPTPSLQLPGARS
Chain of Tyrosine-protein kinase Fer (P16591 whole entry): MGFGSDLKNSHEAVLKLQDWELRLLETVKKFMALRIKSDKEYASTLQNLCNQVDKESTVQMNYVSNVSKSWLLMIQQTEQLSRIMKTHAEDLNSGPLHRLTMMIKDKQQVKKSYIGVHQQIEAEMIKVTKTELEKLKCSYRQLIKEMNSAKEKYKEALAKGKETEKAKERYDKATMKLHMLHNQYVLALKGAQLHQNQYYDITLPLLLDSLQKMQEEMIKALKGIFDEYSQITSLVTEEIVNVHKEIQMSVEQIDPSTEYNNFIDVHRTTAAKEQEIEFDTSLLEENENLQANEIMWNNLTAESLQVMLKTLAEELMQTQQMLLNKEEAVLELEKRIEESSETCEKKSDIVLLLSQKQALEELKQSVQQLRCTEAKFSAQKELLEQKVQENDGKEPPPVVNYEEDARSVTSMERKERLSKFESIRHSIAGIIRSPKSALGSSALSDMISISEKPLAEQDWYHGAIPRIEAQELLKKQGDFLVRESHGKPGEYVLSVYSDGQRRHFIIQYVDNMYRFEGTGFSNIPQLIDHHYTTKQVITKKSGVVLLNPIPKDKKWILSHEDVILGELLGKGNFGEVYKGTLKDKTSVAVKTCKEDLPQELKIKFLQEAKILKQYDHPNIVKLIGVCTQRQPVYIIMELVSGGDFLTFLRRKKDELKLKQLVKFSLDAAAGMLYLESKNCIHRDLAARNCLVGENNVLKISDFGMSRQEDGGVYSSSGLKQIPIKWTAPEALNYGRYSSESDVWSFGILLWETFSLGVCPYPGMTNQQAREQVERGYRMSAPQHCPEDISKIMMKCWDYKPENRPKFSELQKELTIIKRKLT

| Kd [1] | Kd [2] | Kd [3] | Kd [4] | Kd [5] | Kd [6] | Kd [7] | Kd [8] | Kd [9] | Compound |
| --- | --- | --- | --- | --- | --- | --- | --- | --- | --- |
| > 30 µM (inactive) | > 30 µM (inactive) | > 30 µM (inactive) | > 30 µM (inactive) | > 30 µM (inactive) | > 30 µM (inactive) | > 30 µM (inactive) | > 30 µM (inactive) | – | C[C@@H](Oc1cc(C(=O)Nc2ccc(C(=O)N3CCN(C)CC3)cc2)nnc1N)c1c(Cl)ccc(F)c1Cl |
| > 30 µM (inactive) | > 30 µM (inactive) | 5.05 µM (active) | > 30 µM (inactive) | 0.385 µM (active) | – | > 30 µM (inactive) | > 30 µM (inactive) | > 30 µM (inactive) | CCNC(=O)C#Cc1ccc2c(c1)NC(=O)/C2=C(\Nc1ccc(CN(C)C)cc1)c1ccccc1 |
| > 30 µM (inactive) | > 30 µM (inactive) | > 30 µM (inactive) | > 30 µM (inactive) | > 30 µM (inactive) | > 30 µM (inactive) | > 30 µM (inactive) | > 30 µM (inactive) | – | Nc1ncnc2c1c(-c1cccc(OCc3ccccc3)c1)cn2[C@H]1C[C@@H](CN2CCC2)C1 [AEW-541] |
| – | > 30 µM (inactive) | > 30 µM (inactive) | > 30 µM (inactive) | > 30 µM (inactive) | – | > 30 µM (inactive) | > 30 µM (inactive) | > 30 µM (inactive) | Cc1nc(NC(=O)N2CCC[C@H]2C(N)=O)sc1-c1ccnc(C(C)(C)C(F)(F)F)c1 [ALPELISIB] |
| – | > 30 µM (inactive) | > 30 µM (inactive) | 3.35 µM (active) | > 30 µM (inactive) | > 30 µM (inactive) | > 30 µM (inactive) | > 30 µM (inactive) | > 30 µM (inactive) | Cc1csc(-c2nnc(Nc3ccc(Oc4ncccc4-c4ccnc(N)n4)cc3)c3ccccc23)c1 [AMG-900] |
| > 30 µM (inactive) | > 30 µM (inactive) | > 30 µM (inactive) | > 30 µM (inactive) | – | > 30 µM (inactive) | 0.084 µM (active) | 0.043 µM (active) | > 30 µM (inactive) | O=C(Nc1c[nH]nc1-c1nc2cc(CN3CCOCC3)ccc2[nH]1)NC1CC1 [AT-9283] |
| > 30 µM (inactive) | > 30 µM (inactive) | > 30 µM (inactive) | > 30 µM (inactive) | > 30 µM (inactive) | > 30 µM (inactive) | > 30 µM (inactive) | > 30 µM (inactive) | – | Cc1cc(C(=O)NOCCO)c(Nc2ccc(I)cc2F)n(C)c1=O [AZD-8330] |
| > 30 µM (inactive) | > 30 µM (inactive) | > 30 µM (inactive) | 5.86 µM (active) | > 30 µM (inactive) | – | > 30 µM (inactive) | > 30 µM (inactive) | > 30 µM (inactive) | CCn1c(C(=O)N(C2CC2)C2CC2)cc2c3c(ncn3C)c(Nc3cc(C)n(C)n3)nc21 [BMS-911543] |
| > 30 µM (inactive) | > 30 µM (inactive) | > 30 µM (inactive) | > 30 µM (inactive) | > 30 µM (inactive) | 5.95 µM (active) | > 30 µM (inactive) | > 30 µM (inactive) | – | CCn1cc(-c2ccnc3[nH]c(-c4cccc(CN(C)C)c4)cc23)c(-c2ccc(NC(=O)N(C)C)cc2)n1 [GSK-1070916] |
| – | > 30 µM (inactive) | 2.2 µM (active) | > 30 µM (inactive) | 0.802 µM (active) | 2.21 µM | 0.21 µM (active) | > 30 µM (inactive) | > 30 µM (inactive) | Cc1nc(Nc2n[nH]c3c2CN(C(=O)N[C@H](CN(C)C)c2ccccc2)C3(C)C)c2sccc2n1 [PF-03758309] |
| > 30 µM (inactive) | > 30 µM (inactive) | > 30 µM (inactive) | > 30 µM (inactive) | > 30 µM (inactive) | > 30 µM (inactive) | – | > 30 µM (inactive) | > 30 µM (inactive) | Cc1cnc(NC(=O)Nc2cc(Br)c(C)cc2OC[C@@H]2CNCCO2)cn1 [RABUSERTIB] |
| – | > 30 µM (inactive) | > 30 µM (inactive) | 2.36 µM (active) | > 30 µM (inactive) | > 30 µM (inactive) | – | > 30 µM (inactive) | > 30 µM (inactive) | Cn1cc(-c2cnn3c(N)c(Br)c([C@@H]4CCCNC4)nc23)cn1 [SCH-900776] |
| > 30 µM (inactive) | > 30 µM (inactive) | > 30 µM (inactive) | > 30 µM (inactive) | > 30 µM (inactive) | > 30 µM (inactive) | > 30 µM (inactive) | > 30 µM (inactive) | – | Cn1ncc(Cl)c1-c1cc(C(=O)N[C@H](CN)Cc2ccc(F)c(F)c2)oc1Cl [UPROSERTIB] |
| > 30 µM (inactive) | > 30 µM (inactive) | 0.311 µM (active) | > 30 µM (inactive) | 1.69 µM | – | > 30 µM (inactive) | > 30 µM (inactive) | > 30 µM (inactive) | CN1C/C=C/CCOc2cccc(c2)-c2ccnc(n2)Nc2cccc(c2)C1 [ZOTIRACICLIB] |

| Compound | Kd [1] | Kd [2] | Kd [3] | Kd [4] | Kd [5] | Kd [6] | Kd [7] | Kd [8] | Kd [9] |
| --- | --- | --- | --- | --- | --- | --- | --- | --- | --- |
| CC(=O)c1cnc2ccc(-c3cc(Cl)c(O)c(Cl)c3)nc2c1N[C@H]1CC[C@H](CN(C)C)CC1 | – | > 30 µM (inactive) | 0.07 µM (active) | > 30 µM (inactive) | – | > 30 µM (inactive) | > 30 µM (inactive) | > 30 µM (inactive) | – |
| O=C(Nc1cc(C(F)(F)F)cc(C(F)(F)F)c1)c1cc(Cl)ccc1O [IMD-0354] | > 30 µM (inactive) | > 30 µM (inactive) | – | > 30 µM (inactive) | > 30 µM (inactive) | > 30 µM (inactive) | – | > 30 µM (inactive) | > 30 µM (inactive) |
| CNC(=O)c1cc(Oc2ccc(NC(=O)Nc3cc(C(C)(C)C)nn3-c3ccc4ncccc4c3)c(F)c2)ccn1 [REBASTINIB] | > 30 µM (inactive) | > 30 µM (inactive) | 12.1 µM (active) | > 30 µM (inactive) | – | – | > 30 µM (inactive) | > 30 µM (inactive) | > 30 µM (inactive) |
